From patent US20230391792A1, “METHODS AND COMPOSITIONS FOR TARGETED PROTEIN DEGRADATION” (Ranok Therapeutics (Hangzhou) Co. Ltd., priority 2020, published 2023)
pIC50: −log10 of the molar value.

target: T1, HSP90α protein (N-terminal) (Homo sapiens, UniProt P07900); experiment: HSP90α-binding fluorescent polarization (FP) assay, competition with FITC-geldanamycin; settings: probe FITC-geldanamycin 5 nM, 25° C. 120 min
T1 construct: purchased BPS Bioscience #50298
Protocol: (§1) Binding of test compounds to HSP90α protein was measured by fluorescent polarization (FP) using the HSP90α (N-terminal) Assay Kit (BPS Bioscience, #50298), following the manufacturer's instructions, except as noted. Fluorescently labeled HSP90-binding compounds, either the provided FITC-geldanamycin (5 nM final concentration) or RNK04010, a triazolone-based HSP90-binding small molecule labeled with BODIPY through a piperizine-phenyl linker (5 nM final concentration) were employed. A 2.5-fold serial dilution of each test compound ranging from 20 μM to 5.2 nM was assayed for binding to HSP90α. After the final step of adding HSP90α protein to each assay well, plates were mixed by brief shaking, incubated at 25° C. for 120 min for FITC-geldanamycin or 300 min for RNK04010, and fluorescence was measured using a PerkinElmer EnVision Plate Reader.
(§2) HSP90α-binding fluorescent polarization (FP) assays measuring competition with the fluorescently labeled HSP90 binders, FITC-geldanamycin or RNK04010 (BODIPY-labeled), were applied to assess the binding capabilities of CHAMP molecules to HSP90.

**Q.** How did the pIC50 turn out when `Cc1sc2c(c1C)C(c1ccc(Cl)cc1)=N[C@@H](CC(=O)N[C@@H](C)c1ccc(CN3CCN(Cc4ccc(-n5c(O)nnc5-c5cc(C(C)C)c(O)cc5O)cc4)CC3)cc1)c1nnc(C)n1-2` [Compound 38] was run?
**A.** 6.00 to 7.00

**Q.** With `Cc1sc2c(c1C)C(c1ccc(Cl)cc1)=N[C@@H](CC(=O)NCCOc1ccc(CN(C)Cc3ccc(-n4c(O)nnc4-c4cc(C(C)C)c(O)cc4O)cc3)cc1)c1nnc(C)n1-2` [Compound 21] as the compound, how does the pIC50 read?
**A.** 6.00 to 7.00

**Q.** `Cc1sc2c(c1C)C(c1ccc(Cl)cc1)=N[C@@H](CC(=O)NCC(=O)NCCOc1ccc(-n3c(O)nnc3-c3cc(C(C)C)c(O)cc3O)cc1)c1nnc(C)n1-2` [Compound 24] was tested. Which pIC50 did it give?
**A.** 6.00 to 7.00

**Q.** `Cc1sc2c(c1C)C(c1ccc(Cl)cc1)=N[C@@H](CC(=O)N[C@@H](C)c1ccc(CN3CCC(Cc4ccc(-n5c(O)nnc5-c5cc(C(C)C)c(O)cc5O)cc4)CC3)cc1)c1nnc(C)n1-2` [Compound 44] was tested. Which pIC50 did it give?
**A.** 6.00 to 7.00

**Q.** How did the pIC50 turn out when `CCOc1cc(N2CCC(C(=O)NCOCCN3CCC(Cc4ccc(-n5c(O)nnc5-c5cc(C(C)C)c(O)cc5O)cc4)CC3)CC2)ccc1Nc1ncc2c(n1)N(C)c1ccccc1C(=O)N2C` [Compound 111] was run?
**A.** 6.00 to 7.00

**Q.** With `Cc1sc2c(c1C)C(c1ccc(Cl)cc1)=N[C@@H](CC(=O)NCCOCCN1CCC(Cc3ccc(-n4c(O)nnc4-c4cc(C(C)C)c(O)cc4O)cc3)CC1)c1nnc(C)n1-2` [Compound 9] as the compound, how does the pIC50 read?
**A.** 6.00 to 7.00

**Q.** With `CCc1cc(-c2nnc(O)n2-c2ccc(CN3CCN(CC4CCN(C(=O)C[C@@H]5N=C(c6ccc(Cl)cc6)c6c(sc(C)c6C)-n6c(C)nnc65)CC4)CC3)c(F)c2)c(O)cc1O` [Compound 53] as the compound, how does the pIC50 read?
**A.** 6.00 to 7.00

**Q.** `CCn1c(=O)/c(=C2\Sc3ccccc3N2C)s/c1=C\c1cccc[n+]1CCCCCCNC(=O)C[C@@H]1N=C(c2ccc(Cl)cc2)c2c(sc(C)c2C)-n2c(C)nnc21` [Compound 163] was tested. Which pIC50 did it give?
**A.** < 6.00

**Q.** With `Cc1sc2c(c1C)C(c1ccc(Cl)cc1)=NC(CC(=O)N1CCC(CN3CCN(Cc4ccc(-n5c(O)nnc5-c5cc(C(C)C)c(O)cc5O)cc4)CC3)CC1)c1nnc(C)n1-2` (centres unmarked) [Compound 1] as the compound, how does the pIC50 read?
**A.** 6.00 to 7.00

**Q.** How did the pIC50 turn out when `Cc1sc2c(c1C)C(c1ccc(Cl)cc1)=N[C@@H](CC(=O)N1CCC(CCN3CCN(c4ccc(-n5c(O)nnc5-c5cc(C(C)C)c(O)cc5O)cc4)CC3)CC1)c1nnc(C)n1-2` [Compound 28] was run?
**A.** 6.00 to 7.00

**Q.** `CCc1cc(-c2nnc(O)n2-c2ccc(CN3CCC(C(=O)N4CCC(Nc5ncc(NC(=O)c6cc(C(=O)c7c(Cl)ccc(Cl)c7F)c[nH]6)cn5)CC4)CC3)cc2)c(O)cc1O` [Compound 116] was tested. Which pIC50 did it give?
**A.** 6.00 to 7.00

**Q.** With `CC[C@@H](C)Nc1cc(C(=O)NC2CC3CCC(C2)N3c2ccc(C(=O)Nc3ccc(CN4CCN(CC5CCN(C(=O)C[C@@H]6N=C(c7ccc(Cl)cc7)c7c(sc(C)c7C)-n7c(C)nnc76)CC5)CC4)cc3)cn2)ccc1C(N)=O` (some centres unmarked) [Compound 166] as the compound, how does the pIC50 read?
**A.** < 6.00

**Q.** How did the pIC50 turn out when `CCc1cc(-c2nnc(O)n2-c2ccc(CN3CCN(CC4CCN(C(=O)C[C@@H]5N=C(c6ccc(Cl)cc6)c6c(sc(C)c6C)-n6c(C)nnc65)CC4)CC3)cc2)c(O)cc1O` [Compound 41] was run?
**A.** > 7.00

**Q.** How did the pIC50 turn out when `Cc1sc2c(c1C)C(c1ccc(Cl)cc1)=N[C@@H](CCNCc1ccc(-n3c(O)nnc3-c3cc(C(C)C)c(O)cc3O)cc1)c1nnc(C)n1-2` [Compound 31] was run?
**A.** 6.00 to 7.00

**Q.** With `Cc1cc(-c2nnc(O)n2-c2ccc(CN3CCN(CC4CCN(C(=O)C[C@@H]5N=C(c6ccc(Cl)cc6)c6c(sc(C)c6C)-n6c(C)nnc65)CC4)CC3)c(F)c2)c(O)cc1O` [Compound 54] as the compound, how does the pIC50 read?
**A.** 6.00 to 7.00

**Q.** `CC[C@@H](C)Nc1cc(C(=O)NC2CC3CCC(C2)N3c2ccc(C(=O)c3ccc(CN4CCN(CC5CCN(C(=O)C[C@@H]6N=C(c7ccc(Cl)cc7)c7c(sc(C)c7C)-n7c(C)nnc76)CC5)CC4)cc3)cn2)c(C)cc1C(N)=O` (some centres unmarked) [Compound 165] was tested. Which pIC50 did it give?
**A.** < 6.00

**Q.** With `CCOc1cc(N2CCC(C(=O)NCCOCCOCCOc3ccc(Nc4cc(-n5nc(C(F)(F)F)c6c5CC(C)(C)CC6=O)ccc4C(N)=O)cc3)CC2)ccc1Nc1ncc2c(n1)N(C)c1ccccc1C(=O)N2C` [Compound 161] as the compound, how does the pIC50 read?
**A.** < 6.00

**Q.** How did the pIC50 turn out when `CCOc1cc(N2CCC(C(=O)NCCOCCOc3ccc(-n4c(O)nnc4-c4cc(CC)c(O)cc4O)cc3)CC2)ccc1Nc1ncc2c(n1)N(C)c1ccccc1C(=O)N2C` [Compound 112] was run?
**A.** 6.00 to 7.00

**Q.** `Cc1sc2c(c1C)C(c1ccc(Cl)cc1)=N[C@@H](CC(=O)NCCOc1ccccc1CN(C)Cc1ccc(-n3c(O)nnc3-c3cc(C(C)C)c(O)cc3O)cc1)c1nnc(C)n1-2` [Compound 14] was tested. Which pIC50 did it give?
**A.** 6.00 to 7.00

target: T1, HSP90α protein (N-terminal); experiment: HSP90α-binding fluorescent polarization (FP) assay, competition with BODIPY-labeled RNK04010; settings: probe RNK04010 (BODIPY-labeled) 5 nM, 25° C. 300 min
Protocol: as §1, §2

**Q.** `Cc1sc2c(c1C)C(c1ccc(Cl)cc1)=NC(CC(=O)N1CCC(CN3CCN(Cc4ccc(-n5c(O)nnc5-c5cc(C(C)C)c(O)cc5O)cc4)CC3)CC1)c1nnc(C)n1-2` (centres unmarked) [Compound 1] was tested. Which pIC50 did it give?
**A.** 6.00 to 7.00

**Q.** `CC[C@@H](C)Nc1cc(C(=O)NC2CC3CCC(C2)N3c2ccc(C(=O)c3ccc(CN4CCN(CC5CCN(C(=O)C[C@@H]6N=C(c7ccc(Cl)cc7)c7c(sc(C)c7C)-n7c(C)nnc76)CC5)CC4)cc3)cn2)c(C)cc1C(N)=O` (some centres unmarked) [Compound 165] was tested. Which pIC50 did it give?
**A.** < 6.00

**Q.** `CCOc1cc(N2CCC(C(=O)NCc3ccc(-n4c(O)nnc4-c4cc(CC)c(O)cc4O)cc3F)CC2)ccc1Nc1ncc2c(n1)N(C)c1ccccc1C(=O)N2C` [Compound 125] was tested. Which pIC50 did it give?
**A.** < 6.00

**Q.** How did the pIC50 turn out when `CCN(CC)CCNC(=O)c1nnc(-c2cc(C(C)C)c(O)cc2O)n1-c1ccc(CN2CCN(CC3CCN(C(=O)C[C@@H]4N=C(c5ccc(Cl)cc5)c5c(sc(C)c5C)-n5c(C)nnc54)CC3)CC2)cc1` [Compound 90] was run?
**A.** > 7.00

**Q.** With `CCNC(=O)c1nnc(-c2cc(CC)c(O)cc2O)n1-c1ccc(CN2CCN(CC3CCN(C(=O)C[C@@H]4N=C(c5ccc(Cl)cc5)c5c(sc(C)c5C)-n5c(C)nnc54)CC3)CC2)cc1` [Compound 59] as the compound, how does the pIC50 read?
**A.** > 7.00

**Q.** `Cc1sc2c(c1C)C(c1ccc(Cl)cc1)=N[C@@H](CC(=O)N1CCC(CCN3CCC(Cc4ccc(-n5c(O)nnc5-c5cc(C(C)C)c(O)cc5O)cc4)CC3)CC1)c1nnc(C)n1-2` [Compound 55] was tested. Which pIC50 did it give?
**A.** > 7.00

**Q.** With `Cc1sc2c(c1C)C(c1ccc(Cl)cc1)=N[C@@H](CC(=O)N[C@H](C)c1cccc(CN3CCC(Cc4ccc(-n5c(O)nnc5-c5cc(C(C)C)c(O)cc5O)cc4)CC3)c1)c1nnc(C)n1-2` [Compound 56] as the compound, how does the pIC50 read?
**A.** > 7.00
